Here are results for one compound from paper PMC4022860, “Fragments of Bacterial Endoglycosidase S and Immunoglobulin G Reveal Subdomains of Each That Contribute to Deglycosylation” (The Journal of Biological Chemistry, 2014).

The structures appear in SMILES notation.

The experiment has as its target T1, EndoS CBM (carbohydrate binding module of endoglycosidase S) (Streptococcus pyogenes, UniProt Q99Y92).
T1 construct: isolated CBM domain, residues 761-924, C-terminal hexahistidine tag (pET303), 15N-labelled, expressed in E. coli BL21(DE3)
In words: 1H, […] HSQC NMR titration. The note with it: 0.15 mM 15N-CBM; 62.5 mM to 2 M ligand; 10 mM BisTris, pH 6.5, 15 mM NaCl, 37 °C.

T1 sequence (Q99Y92 761-924): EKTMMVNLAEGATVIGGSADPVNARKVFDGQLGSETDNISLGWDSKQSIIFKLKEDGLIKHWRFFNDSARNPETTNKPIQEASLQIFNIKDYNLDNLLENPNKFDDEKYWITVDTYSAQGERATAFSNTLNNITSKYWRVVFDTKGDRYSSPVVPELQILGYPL

For the compound `OC[C@H]1OC(O)[C@H](O)[C@@H](O)[C@H]1O` (stereo partly drawn) [D-galactose], the “1H,15N HSQC NMR titration” value was “four distinct peaks appeared upon D-galactose titration, which were visible from the lowest titration point”.
